Measurements taken from patent publication US12209038B2, “Effluent” (LINCOLN UNIVERSITY, priority 2019, dated 2025).
Where two headings read alike, the source gives them in different places.

Columns and labels:
[1] = Experiment 7: glass jars, different sulphate and/or iron compounds, methane and hydrogen sulphide
Protocol: The objective of Experiment 7 was to measure the effect of different sulphate and/or iron compounds on emissions of methane and hydrogen sulphide gases from treated effluent. The experiment was conducted using the same 1.5 L glass jars and methods of measurement described in Experiment 2 above. There were 10 treatments: (i) untreated FDE, (ii) PFS treated effluent, (iii) calcium sulphate (CaSO4) treated effluent, (iv) potassium sulphate (K2SO4) treated effluent, (v) aluminium sulphate (Al2(SO4)3) treated effluent, (vi) magnesium sulphate (MgSO4) treated effluent, (vii) sodium sulphate (Na2SO4) treated effluent, (viii), ferrous sulphate (i.e. the divalent form of iron sulphate) (FeSO4) treated effluent, (ix) ferric chloride (FeCl3) treated effluent, and (x) ferrous chloride (FeCl2) treated effluent. The sulphate treatment chemicals were all used at the same rate of sulphate as applied in the PFS treatment (326 mg SO4/L) and the iron treatment chemicals were all used at the same rate of iron as applied in the PFS treatment (133 mg Fe/L).

[2] = 200 mg Fe/L of FDE, same rate of PFS and FS
Protocol: The objective of Experiment 6 was to compare the effectiveness of ferric sulphate (FS) versus polyferric sulphate (PFS) to reduce methane emissions from treated effluent. Experiment 6 was conducted using the same large (3.5 m deep×0.5 m diameter) PVC pipes described in Experiment 5. The gas capture equipment and measurement process were also identical to that described in Experiment 5.
There were three treatments: (i) untreated FDE; (ii) TE produced using PFS and (iii) TE produced using FS. There were four replicates of each treatment set out in a randomised block design. Five hundred and sixty litres of farm dairy effluent were pumped from the FDE storage pond on Lincoln University Dairy Farm into each column leaving a head space height of 10 cm. The same rate of PFS and FS was used (200 mg Fe/L of FDE). The PFS and FS solution was mixed into the effluent for two minutes using a handheld electric drill fitted with a paddle stirrer.

[3] = iron chemicals at 133 mg Fe/L, same iron rate as PFS treatment

Compound | amount of methane emitted from FDE [1] | effectiveness in reducing methane emitted compared with PFS [1] | emission of hydrogen sulphide (H2S) [1] | further results
[Cl][Fe]([Cl])[Cl] [ferric chloride] |  |  |  | effectiveness in reducing methane emission compared with PFS [1, 3]: not nearly as effective
O=S(=O)([O-])[O-].[Fe+2] [ferrous sulphate] |  |  |  | effectiveness in reducing methane emission compared with PFS [1]: not nearly as effective
[Cl][Fe][Cl] [ferrous chloride] |  |  |  | effectiveness in reducing methane emission compared with PFS [1, 3]: not nearly as effective
O=S(=O)([O-])[O-].[Ca+2] [calcium sulphate] | can be reduced | none of these chemicals were as effective as PFS | continued to produce, or enhanced the production of | 
O=S(=O)([O-])[O-].[Mg+2] [magnesium sulphate] | can be reduced | none of these chemicals were as effective as PFS | continued to produce, or enhanced the production of | 
O=S(=O)([O-])[O-].O=S(=O)([O-])[O-].O=S(=O)([O-])[O-].[Fe+3].[Fe+3] [FS, ferric sulphate] |  |  |  | effectiveness in reducing the methane emission flux compared with PFS [2]: equally as effective; effectiveness in reducing the total amount of methane emitted compared with PFS [2]: equally as effective
O=S(=O)([O-])[O-].[Na+].[Na+] [sodium sulphate] | can be reduced | none of these chemicals were as effective as PFS | continued to produce, or enhanced the production of | 
O=S(=O)([O-])[O-].[K+].[K+] [potassium sulphate] | can be reduced | none of these chemicals were as effective as PFS | continued to produce, or enhanced the production of | 
